The NIST ThermoML archive (doi:10.1021/je500380x)

Assay: mn = molality of the nth substance listed, in mol/kg
Details: 100 kPa, Liquid; for electrical conductivity: Alternating current cell with electrodes; for viscosity: Falling or rolling sphere viscometry; for mass density: Vibrating tube method

CCC(=O)OCCN1CCNCC1 [2-(piperazin-1-yl)ethyl propionate] + CCO
Details	electrical conductivity [S/m]	mass density [kg/m3]	viscosity [mPa·s]
293.15 K, m1 = 0.05	0.018	792.31	1.231
293.15 K, m1 = 0.1	0.0284	795.01	1.291
293.15 K, m1 = 0.1985	0.0443	800.36	1.369
293.15 K, m1 = 0.3005	0.0571	806.02	1.473
293.15 K, m1 = 0.4001	0.0671	811.4	1.577
293.15 K, m1 = 0.5007	0.0769	817.08	1.711
293.15 K, m1 = 0.5998	0.0851	822.5	1.845
293.15 K, m1 = 0.7002	0.092	828.2	2
293.15 K, m1 = 0.8	0.0988	833.89	2.198
293.15 K, m1 = 0.8957	0.1048	839.61	2.363
293.15 K, m1 = 1	0.1105	845.48	2.582
293.15 K, m1 = 1.198	0.119	857.06	3.081
293.15 K, m1 = 1.401	0.126	869.49	3.774
293.15 K, m1 = 1.602	0.13	881.43	4.697
293.15 K, m1 = 1.8	0.1314	893.69	5.93
293.15 K, m1 = 2.001	0.1308	906.93	7.934
293.15 K, m1 = 2.198	0.127	918.83	9.733
293.15 K, m1 = 2.397	0.121	931.94	12.86
293.15 K, m1 = 2.597	0.1137	945.08	18.8
293.15 K, m1 = 2.796	0.106	958.17	25.23
293.15 K, m1 = 3.006	0.0951	972.39	37.45
298.15 K, m1 = 0.05	0.0186	788.01	1.12
298.15 K, m1 = 0.1	0.0296	790.73	1.173
298.15 K, m1 = 0.1985	0.0465	796.08	1.241
298.15 K, m1 = 0.3005	0.06	801.71	1.333
298.15 K, m1 = 0.4001	0.071	807.14	1.424
298.15 K, m1 = 0.5007	0.0816	812.78	1.541
298.15 K, m1 = 0.5998	0.0904	818.26	1.658
298.15 K, m1 = 0.7002	0.0977	823.96	1.793
298.15 K, m1 = 0.8	0.106	829.67	1.967
298.15 K, m1 = 0.8957	0.1123	835.39	2.11
298.15 K, m1 = 1	0.119	841.3	2.298
298.15 K, m1 = 1.198	0.129	852.92	2.729
298.15 K, m1 = 1.401	0.137	865.42	3.319
298.15 K, m1 = 1.602	0.1415	877.35	4.106
298.15 K, m1 = 1.8	0.1443	889.66	5.146
298.15 K, m1 = 2.001	0.1447	902.95	6.811
298.15 K, m1 = 2.198	0.1423	914.88	8.295
298.15 K, m1 = 2.397	0.138	928.01	10.83
298.15 K, m1 = 2.597	0.1304	941.19	15.64
298.15 K, m1 = 2.796	0.1237	954.36	20.7
298.15 K, m1 = 3.006	0.1136	968.58	30.28
303.15 K, m1 = 0.05	0.0191	783.69	1.021
303.15 K, m1 = 0.1	0.0305	786.41	1.069
303.15 K, m1 = 0.1985	0.0483	791.76	1.2
303.15 K, m1 = 0.3005	0.0627	797.4	1.209
303.15 K, m1 = 0.4001	0.0745	802.85	1.289
303.15 K, m1 = 0.5007	0.0858	808.5	1.392
303.15 K, m1 = 0.5998	0.0954	813.99	1.495
303.15 K, m1 = 0.7002	0.1036	819.7	1.613
303.15 K, m1 = 0.8	0.1125	825.43	1.766
303.15 K, m1 = 0.8957	0.119	831.17	1.89
303.15 K, m1 = 1	0.127	837.09	2.054
303.15 K, m1 = 1.198	0.139	848.73	2.427
303.15 K, m1 = 1.401	0.149	861.28	2.935
303.15 K, m1 = 1.602	0.155	873.24	3.606
303.15 K, m1 = 1.8	0.16	885.6	4.489
303.15 K, m1 = 2.001	0.1614	898.93	5.886
303.15 K, m1 = 2.198	0.159	910.89	7.117
303.15 K, m1 = 2.397	0.155	924.07	9.203
303.15 K, m1 = 2.597	0.147	937.29	13.25
303.15 K, m1 = 2.796	0.14	950.5	17.19
303.15 K, m1 = 3.006	0.1307	964.74	24.65
308.15 K, m1 = 0.05	0.0194	–	0.934
308.15 K, m1 = 0.1	0.0313	–	0.976
308.15 K, m1 = 0.1985	0.0499	–	1.028
308.15 K, m1 = 0.3005	0.0652	–	1.1
308.15 K, m1 = 0.4001	0.0776	–	1.171
308.15 K, m1 = 0.5007	0.0899	–	1.261
308.15 K, m1 = 0.5998	0.1004	–	1.352
308.15 K, m1 = 0.7002	0.109	–	1.456
308.15 K, m1 = 0.8	0.119	–	1.59
308.15 K, m1 = 0.8957	0.126	–	1.698
308.15 K, m1 = 1	0.135	–	–
308.15 K, m1 = 1.198	0.148	–	–
308.15 K, m1 = 1.401	0.1609	–	–
308.15 K, m1 = 1.602	0.169	–	–
308.15 K, m1 = 1.8	0.1747	–	–
308.15 K, m1 = 2.001	0.178	–	–
308.15 K, m1 = 2.198	0.177	–	–
308.15 K, m1 = 2.397	0.173	–	–
308.15 K, m1 = 2.597	0.165	–	–
308.15 K, m1 = 2.796	0.158	–	–
308.15 K, m1 = 3.006	0.148	–	–
